This passage reports IC50 results from BindingDB's records for PubMed 39128361 (Xi'an Jiaotong University).

A short description of the assay: Inhibition of pERK (unknown origin).

Consider `CC(=O)N1CCN(c2ccc(Nc3nccc(-c4sc(C(C)C)nc4-c4cccc(NS(=O)(=O)c5ccccc5)c4)n3)cn2)CC1`, for which the IC50 stood at 7 nM.

The IC50 is the concentration needed to halve the response being measured. Lower therefore signals higher potency.
